Data as given in ChEMBL document CHEMBL1121962, “Synthesis of 4-amino-1-beta-D-ribofuranosyl-1H-pyrrolo[2,3-b]pyridine (1-deazatubercidin) as a potential antitumor agent” (J Med Chem, 1982).
Active and inactive are the calls of the source. No cut-off for these calls is given here.

Key:
Mus musculus [1] = species: Mus musculus; assay: Effect tested against murine leukemia L1210 cells; Inactive; assay type: functional, cell-based
Mus musculus [2] = species: Mus musculus; assay: Effect tested against murine sarcoma S-180 cells; Inactive; assay type: functional, cell-based

With `Nc1ccnc2c1ccn2C1O[C@H](CO)[C@@H](O)[C@H]1O` (some centres not stated) the Activity (Mus musculus [1]) was “inactive” and the Activity (Mus musculus [2]) was “inactive”.
